# Assay: Phase 1 study: safety and tolerability (TEAEs, NCI CTCAE v5.0)
# Method: The study employed an open-label, 3+3 design, with the option of adding backfill patients to each cohort cleared and deemed safe. […] Tumor responses were assessed every 2 cycles using RECIST v1.1 criteria. […] The study also involves an ongoing dose escalation study where participants receive 100 mg, 200 mg, 300 mg, 400 mg, and 600 mg once daily (QD) dose levels.
# Safety was assessed through the analysis of the reported incidence of treatment-emergent AEs. Treatment-emergent AEs are those with an onset on or after the initiation of therapy and will be graded according to NCI CTCAE Version 5.0. Other safety endpoints, including laboratory results, vital signs, and ECG findings, were summarized for all patients in the Safety set.
structure (smiles),measurement,setting,value
"O=C1CC[C@H](N2Cc3cc(N4CCN(CC5CCN(c6ccc([C@@H]7c8ccc(O)cc8OC[C@@H]7c7ccccc7)cc6F)CC5)CC4)ccc3C2=O)C(=O)N1 [compound (1-g), (S)-3-(5-(4-((1-(2-fluoro-4-((3S,4R)-7-hydroxy-3-phenylchroman-4-yl)phenyl)piperidin-4-yl)methyl)piperazin-1-yl)-1-oxoisoindolin-2-yl)piperidine-2,6-dione]",TEAE: Urinary Tract Infection,200 mg QD (N = 12),1 (8.3) n (%)
same,TEAE: Vaginal Haemorrhage,200 mg QD (N = 12),0 n (%)
same,TEAE: Vomiting,200 mg QD (N = 12),1 (8.3) n (%)
same,related TEAE: Alopecia,200 mg QD (N = 12),0 n (%)
same,related TEAE: Arthralgia,200 mg QD (N = 12),1 (8.3) n (%)
same,related TEAE: Constipation,200 mg QD (N = 12),0 n (%)
same,related TEAE: Diarrhea,200 mg QD (N = 12),0 n (%)
same,related TEAE: Dysgeusia,200 mg QD (N = 12),0 n (%)
same,related TEAE: Eructation,200 mg QD (N = 12),0 n (%)
same,related TEAE: Fatigue,200 mg QD (N = 12),1 (8.3) n (%)
same,related TEAE: Flatulence,200 mg QD (N = 12),0 n (%)
same,related TEAE: Hot Flush,200 mg QD (N = 12),1 (8.3) n (%)
same,related TEAE: Hyperhidrosis,200 mg QD (N = 12),0 n (%)
same,related TEAE: Nail Disorder,200 mg QD (N = 12),0 n (%)
same,related TEAE: Nausea,200 mg QD (N = 12),0 n (%)
same,related TEAE: Neutrophil Count Decreased,200 mg QD (N = 12),0 n (%)
same,related TEAE: Platelet Count Decreased,200 mg QD (N = 12),0 n (%)
same,related TEAE: Tremor,200 mg QD (N = 12),0 n (%)
same,related TEAE: Vomiting,200 mg QD (N = 12),0 n (%)
same,Patients with Any Compound (1-g) related TEAE,300 mg QD (N = 11),5 (45.5) n (%)
same,Patients with Any TEAE,300 mg QD (N = 11),8 (72.7) n (%)
same,TEAE: Abdominal Distension,300 mg QD (N = 11),1 (9.1) n (%)
same,TEAE: Abdominal Pain,300 mg QD (N = 11),0 n (%)
same,TEAE: Acute Kidney Injury,300 mg QD (N = 11),1 (9.1) n (%)
same,TEAE: Adrenal Insufficiency,300 mg QD (N = 11),0 n (%)
same,TEAE: Alopecia,300 mg QD (N = 11),0 n (%)
same,TEAE: Anaemia,300 mg QD (N = 11),1 (9.1) n (%)
same,TEAE: Anxiety,300 mg QD (N = 11),1 (9.1) n (%)
same,TEAE: Arthralgia,300 mg QD (N = 11),0 n (%)
same,TEAE: Axillary Vein Thrombosis,300 mg QD (N = 11),0 n (%)
same,TEAE: Back Pain,300 mg QD (N = 11),1 (9.1) n (%)
same,TEAE: Basal Cell Carcinoma,300 mg QD (N = 11),0 n (%)
same,TEAE: Breast Pain,300 mg QD (N = 11),0 n (%)
same,TEAE: Confusional State,300 mg QD (N = 11),0 n (%)
same,TEAE: Constipation,300 mg QD (N = 11),1 (9.1) n (%)
same,TEAE: Cough,300 mg QD (N = 11),0 n (%)
same,TEAE: Covid-19 Pneumonia,300 mg QD (N = 11),0 n (%)
same,TEAE: Dehydration,300 mg QD (N = 11),1 (9.1) n (%)
same,TEAE: Diarrhoea,300 mg QD (N = 11),1 (9.1) n (%)
same,TEAE: Dizziness,300 mg QD (N = 11),1 (9.1) n (%)
same,TEAE: Dysgeusia,300 mg QD (N = 11),0 n (%)
same,TEAE: Dyspepsia,300 mg QD (N = 11),0 n (%)
same,TEAE: Dyspnoea,300 mg QD (N = 11),1 (9.1) n (%)
same,TEAE: Dysuria,300 mg QD (N = 11),1 (9.1) n (%)
same,TEAE: Eructation,300 mg QD (N = 11),0 n (%)
same,TEAE: Fall,300 mg QD (N = 11),0 n (%)
same,TEAE: Fatigue,300 mg QD (N = 11),1 (9.1) n (%)
same,TEAE: Flatulence,300 mg QD (N = 11),1 (9.1) n (%)
same,TEAE: Fracture,300 mg QD (N = 11),0 n (%)
same,TEAE: Fungal Infection,300 mg QD (N = 11),1 (9.1) n (%)
same,TEAE: Haematoma,300 mg QD (N = 11),1 (9.1) n (%)
same,TEAE: Hot Flush,300 mg QD (N = 11),2 (18.2) n (%)
same,TEAE: Hyperglycaemia,300 mg QD (N = 11),0 n (%)
same,TEAE: Hyperhidrosis,300 mg QD (N = 11),0 n (%)
same,TEAE: Hypokalaemia,300 mg QD (N = 11),1 (9.1) n (%)
same,TEAE: Hypotension,300 mg QD (N = 11),0 n (%)
same,TEAE: Influenza Like Illness,300 mg QD (N = 11),0 n (%)
same,TEAE: Insomnia,300 mg QD (N = 11),0 n (%)
same,TEAE: Lower Respiratory Tract Congestion,300 mg QD (N = 11),0 n (%)
same,TEAE: Lymphocyte Count Decreased,300 mg QD (N = 11),0 n (%)
same,TEAE: Muscle Spasm,300 mg QD (N = 11),0 n (%)
same,TEAE: Muscular Weakness,300 mg QD (N = 11),0 n (%)
same,TEAE: Musculoskeletal Stiffness,300 mg QD (N = 11),0 n (%)
same,TEAE: Nail Disorder,300 mg QD (N = 11),0 n (%)
same,TEAE: Nasal Congestion,300 mg QD (N = 11),0 n (%)
same,TEAE: Nausea,300 mg QD (N = 11),4 (36.4) n (%)
same,TEAE: Neutrophil Count Decreased,300 mg QD (N = 11),1 (9.1) n (%)
same,TEAE: Oedema Peripheral,300 mg QD (N = 11),1 (9.1) n (%)
same,TEAE: Ophthalmic Migraine,300 mg QD (N = 11),0 n (%)
same,TEAE: Oral Pain,300 mg QD (N = 11),1 (9.1) n (%)
same,TEAE: Pain In Extremity,300 mg QD (N = 11),0 n (%)
same,TEAE: Pharyngitis,300 mg QD (N = 11),0 n (%)
same,TEAE: Platelet Count Decreased,300 mg QD (N = 11),1 (9.1) n (%)
same,TEAE: Pleural Effusion,300 mg QD (N = 11),1 (9.1) n (%)
same,TEAE: Pneumonia,300 mg QD (N = 11),0 n (%)
same,TEAE: Productive Cough,300 mg QD (N = 11),0 n (%)
same,TEAE: Rash Maculo-Papular,300 mg QD (N = 11),0 n (%)
same,TEAE: Rhinitis Allergic,300 mg QD (N = 11),1 (9.1) n (%)
same,TEAE: Rib Fracture,300 mg QD (N = 11),0 n (%)
same,TEAE: Seizure,300 mg QD (N = 11),0 n (%)
same,TEAE: Sepsis,300 mg QD (N = 11),0 n (%)
same,TEAE: Tremor,300 mg QD (N = 11),1 (9.1) n (%)
same,TEAE: Upper Respiratory Tract Infection,300 mg QD (N = 11),1 (9.1) n (%)
same,TEAE: Urinary Tract Infection,300 mg QD (N = 11),1 (9.1) n (%)
same,TEAE: Vaginal Haemorrhage,300 mg QD (N = 11),1 (9.1) n (%)
same,TEAE: Vomiting,300 mg QD (N = 11),1 (9.1) n (%)
same,related TEAE: Alopecia,300 mg QD (N = 11),0 n (%)
same,related TEAE: Arthralgia,300 mg QD (N = 11),0 n (%)
same,related TEAE: Constipation,300 mg QD (N = 11),1 (9.1) n (%)
same,related TEAE: Diarrhea,300 mg QD (N = 11),1 (9.1) n (%)
same,related TEAE: Dysgeusia,300 mg QD (N = 11),0 n (%)
same,related TEAE: Eructation,300 mg QD (N = 11),0 n (%)
same,related TEAE: Fatigue,300 mg QD (N = 11),1 (9.1) n (%)
same,related TEAE: Flatulence,300 mg QD (N = 11),0 n (%)
same,related TEAE: Hot Flush,300 mg QD (N = 11),2 (18.2) n (%)
same,related TEAE: Hyperhidrosis,300 mg QD (N = 11),0 n (%)
same,related TEAE: Nail Disorder,300 mg QD (N = 11),0 n (%)
same,related TEAE: Nausea,300 mg QD (N = 11),3 (27.3) n (%)
same,related TEAE: Neutrophil Count Decreased,300 mg QD (N = 11),0 n (%)
same,related TEAE: Platelet Count Decreased,300 mg QD (N = 11),0 n (%)
same,related TEAE: Tremor,300 mg QD (N = 11),0 n (%)
same,related TEAE: Vomiting,300 mg QD (N = 11),1 (9.1) n (%)
same,Patients with Any Compound (1-g) related TEAE,400 mg QD (N = 6),3 (50.0) n (%)
same,Patients with Any TEAE,400 mg QD (N = 6),4 (66.7) n (%)
same,TEAE: Abdominal Distension,400 mg QD (N = 6),0 n (%)
same,TEAE: Abdominal Pain,400 mg QD (N = 6),0 n (%)
same,TEAE: Acute Kidney Injury,400 mg QD (N = 6),0 n (%)
same,TEAE: Adrenal Insufficiency,400 mg QD (N = 6),0 n (%)
same,TEAE: Alopecia,400 mg QD (N = 6),1 (16.7) n (%)
same,TEAE: Anaemia,400 mg QD (N = 6),0 n (%)
same,TEAE: Anxiety,400 mg QD (N = 6),0 n (%)
same,TEAE: Arthralgia,400 mg QD (N = 6),0 n (%)
same,TEAE: Axillary Vein Thrombosis,400 mg QD (N = 6),0 n (%)
same,TEAE: Back Pain,400 mg QD (N = 6),0 n (%)
same,TEAE: Basal Cell Carcinoma,400 mg QD (N = 6),0 n (%)
same,TEAE: Breast Pain,400 mg QD (N = 6),0 n (%)
same,TEAE: Confusional State,400 mg QD (N = 6),0 n (%)
same,TEAE: Constipation,400 mg QD (N = 6),1 (16.7) n (%)
same,TEAE: Cough,400 mg QD (N = 6),0 n (%)
same,TEAE: Covid-19 Pneumonia,400 mg QD (N = 6),0 n (%)
same,TEAE: Dehydration,400 mg QD (N = 6),0 n (%)
same,TEAE: Diarrhoea,400 mg QD (N = 6),1 (16.7) n (%)
same,TEAE: Dizziness,400 mg QD (N = 6),0 n (%)
same,TEAE: Dysgeusia,400 mg QD (N = 6),1 (16.7) n (%)
same,TEAE: Dyspepsia,400 mg QD (N = 6),0 n (%)
same,TEAE: Dyspnoea,400 mg QD (N = 6),1 (16.7) n (%)
same,TEAE: Dysuria,400 mg QD (N = 6),0 n (%)
same,TEAE: Eructation,400 mg QD (N = 6),1 (16.7) n (%)
same,TEAE: Fall,400 mg QD (N = 6),0 n (%)
same,TEAE: Fatigue,400 mg QD (N = 6),2 (33.3) n (%)
same,TEAE: Flatulence,400 mg QD (N = 6),1 (16.7) n (%)
same,TEAE: Fracture,400 mg QD (N = 6),0 n (%)
same,TEAE: Fungal Infection,400 mg QD (N = 6),0 n (%)
same,TEAE: Haematoma,400 mg QD (N = 6),0 n (%)
same,TEAE: Hot Flush,400 mg QD (N = 6),0 n (%)
same,TEAE: Hyperglycaemia,400 mg QD (N = 6),0 n (%)
same,TEAE: Hyperhidrosis,400 mg QD (N = 6),0 n (%)
same,TEAE: Hypokalaemia,400 mg QD (N = 6),0 n (%)
same,TEAE: Hypotension,400 mg QD (N = 6),1 (16.7) n (%)
same,TEAE: Influenza Like Illness,400 mg QD (N = 6),0 n (%)
same,TEAE: Insomnia,400 mg QD (N = 6),1 (16.7) n (%)
same,TEAE: Lower Respiratory Tract Congestion,400 mg QD (N = 6),0 n (%)
same,TEAE: Lymphocyte Count Decreased,400 mg QD (N = 6),0 n (%)
same,TEAE: Muscle Spasm,400 mg QD (N = 6),1 (16.7) n (%)
same,TEAE: Muscular Weakness,400 mg QD (N = 6),1 (16.7) n (%)
same,TEAE: Musculoskeletal Stiffness,400 mg QD (N = 6),0 n (%)
same,TEAE: Nail Disorder,400 mg QD (N = 6),1 (16.7) n (%)
same,TEAE: Nasal Congestion,400 mg QD (N = 6),0 n (%)

# Source: patent US20250381179A1, “CHROMAN-BASED COMPOUNDS FOR TREATING CANCER” (priority 2024, published 2025)
